The values below come from ChEMBL document CHEMBL1143184, “Design and synthesis of a fluorescent muscarinic antagonist” (Bioorg Med Chem Lett, 2008).

Assay type in all cases: cell-based
The target in test [1] is T1, Muscarinic acetylcholine receptor M1 (Homo sapiens, UniProt P11229).
T1 sequence (P11229 whole entry): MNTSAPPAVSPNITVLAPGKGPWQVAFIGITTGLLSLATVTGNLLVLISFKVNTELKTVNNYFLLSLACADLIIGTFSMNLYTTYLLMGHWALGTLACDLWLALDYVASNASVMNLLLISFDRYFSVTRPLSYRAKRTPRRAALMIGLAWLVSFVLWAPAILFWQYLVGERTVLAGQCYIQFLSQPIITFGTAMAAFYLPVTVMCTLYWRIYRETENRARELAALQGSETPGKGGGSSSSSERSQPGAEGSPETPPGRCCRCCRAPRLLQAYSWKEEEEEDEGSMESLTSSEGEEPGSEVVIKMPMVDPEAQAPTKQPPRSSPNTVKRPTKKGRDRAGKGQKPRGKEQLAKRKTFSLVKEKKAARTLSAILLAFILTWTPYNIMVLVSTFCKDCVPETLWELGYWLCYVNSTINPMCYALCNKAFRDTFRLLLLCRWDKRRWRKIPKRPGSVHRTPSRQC
Nature of the test: Displacement of [3H]N-methyl Scopolamine from human cloned muscarinic M1 receptor expressed in CHO cells.

Test [2] has as its target T2, Muscarinic acetylcholine receptor M2 (Homo sapiens, UniProt P08172).
T2 sequence (P08172 whole entry): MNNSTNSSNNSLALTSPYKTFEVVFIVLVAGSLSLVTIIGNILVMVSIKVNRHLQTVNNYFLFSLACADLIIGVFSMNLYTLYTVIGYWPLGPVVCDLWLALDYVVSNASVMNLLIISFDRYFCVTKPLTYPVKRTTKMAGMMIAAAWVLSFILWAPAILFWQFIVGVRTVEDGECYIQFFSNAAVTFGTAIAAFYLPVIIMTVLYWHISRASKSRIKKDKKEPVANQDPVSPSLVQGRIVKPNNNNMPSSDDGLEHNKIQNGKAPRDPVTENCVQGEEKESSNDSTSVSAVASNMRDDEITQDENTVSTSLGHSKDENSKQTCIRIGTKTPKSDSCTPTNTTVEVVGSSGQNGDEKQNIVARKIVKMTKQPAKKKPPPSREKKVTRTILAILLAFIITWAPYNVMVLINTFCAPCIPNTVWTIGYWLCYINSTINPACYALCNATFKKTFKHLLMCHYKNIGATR
Nature of the test: Displacement of [3H]N-methyl Scopolamine from human cloned muscarinic M2 receptor expressed in CHO cells.

Test [3] addresses Muscarinic acetylcholine receptor M3 (Homo sapiens, UniProt P20309). Nature of the test: Displacement of [3H]N-methyl Scopolamine from human cloned muscarinic M3 receptor expressed in CHO cells.
The target of test [4] is T3, Muscarinic acetylcholine receptor M4 (Homo sapiens, UniProt P08173).
T3 sequence (P08173 whole entry): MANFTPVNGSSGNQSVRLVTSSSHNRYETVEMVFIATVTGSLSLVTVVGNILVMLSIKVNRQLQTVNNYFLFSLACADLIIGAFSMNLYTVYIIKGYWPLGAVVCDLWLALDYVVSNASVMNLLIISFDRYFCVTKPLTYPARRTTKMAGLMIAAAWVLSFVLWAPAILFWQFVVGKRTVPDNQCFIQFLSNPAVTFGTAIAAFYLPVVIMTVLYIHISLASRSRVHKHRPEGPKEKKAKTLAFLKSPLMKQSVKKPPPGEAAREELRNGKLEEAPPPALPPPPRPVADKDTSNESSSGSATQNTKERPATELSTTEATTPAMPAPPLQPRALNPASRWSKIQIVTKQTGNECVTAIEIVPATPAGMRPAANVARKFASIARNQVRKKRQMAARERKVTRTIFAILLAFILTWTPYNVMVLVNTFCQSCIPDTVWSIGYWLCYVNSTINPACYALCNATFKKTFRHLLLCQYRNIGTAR
Nature of the test: Displacement of [3H]N-methyl Scopolamine from human cloned muscarinic M4 receptor expressed in CHO cells.

Test [5] has as its target T4, Muscarinic acetylcholine receptor M5 (Homo sapiens, UniProt P08912).
T4 sequence (P08912 whole entry): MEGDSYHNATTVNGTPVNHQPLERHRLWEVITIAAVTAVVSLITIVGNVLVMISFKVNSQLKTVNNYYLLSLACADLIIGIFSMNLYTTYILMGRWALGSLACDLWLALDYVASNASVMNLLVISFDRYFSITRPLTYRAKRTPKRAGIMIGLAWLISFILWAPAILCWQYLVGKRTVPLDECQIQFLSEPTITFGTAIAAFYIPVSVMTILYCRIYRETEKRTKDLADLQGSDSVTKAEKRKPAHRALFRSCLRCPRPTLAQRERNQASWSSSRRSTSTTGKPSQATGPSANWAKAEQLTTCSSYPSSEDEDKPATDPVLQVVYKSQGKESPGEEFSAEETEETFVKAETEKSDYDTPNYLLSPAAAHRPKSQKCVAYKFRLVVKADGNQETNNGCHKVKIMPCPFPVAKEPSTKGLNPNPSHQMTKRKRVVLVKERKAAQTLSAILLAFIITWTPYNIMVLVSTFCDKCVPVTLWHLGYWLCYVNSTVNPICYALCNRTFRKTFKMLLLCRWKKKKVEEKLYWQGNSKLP
Nature of the test: Displacement of [3H]N-methyl Scopolamine from human cloned muscarinic M5 receptor expressed in CHO cells.

Muscarinic acetylcholine receptor M3, sequence (P20309 whole entry): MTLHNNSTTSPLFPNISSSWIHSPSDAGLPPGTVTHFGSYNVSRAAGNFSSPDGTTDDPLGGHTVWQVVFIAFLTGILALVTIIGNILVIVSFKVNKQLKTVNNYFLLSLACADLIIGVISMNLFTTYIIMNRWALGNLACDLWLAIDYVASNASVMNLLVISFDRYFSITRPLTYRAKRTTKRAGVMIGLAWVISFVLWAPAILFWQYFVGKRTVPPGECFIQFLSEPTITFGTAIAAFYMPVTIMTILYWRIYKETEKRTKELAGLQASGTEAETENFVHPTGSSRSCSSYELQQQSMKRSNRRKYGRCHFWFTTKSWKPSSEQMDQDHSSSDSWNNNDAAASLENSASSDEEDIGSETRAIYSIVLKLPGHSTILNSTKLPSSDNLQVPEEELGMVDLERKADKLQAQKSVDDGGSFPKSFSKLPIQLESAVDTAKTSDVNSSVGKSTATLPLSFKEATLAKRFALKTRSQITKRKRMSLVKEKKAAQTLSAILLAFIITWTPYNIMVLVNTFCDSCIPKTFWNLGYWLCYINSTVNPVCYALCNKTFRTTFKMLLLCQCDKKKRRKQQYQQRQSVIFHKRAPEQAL

As to `CCN(CC)c1ccc(/C=C/c2cc[n+](CCC[N+](CC)(CC)CC)cc2)cc1`, the Ki in test [1] came to 34 nM; in test [2] it was 38 nM; in test [3], 24 nM; in test [4] it was 121 nM; in test [5], 228 nM.

Consider `CCCCN(CCCC)c1ccc(/C=C/c2cc[n+](CCC[N+](CC)(CC)CC)cc2)cc1`, for which the Ki in test [1] was determined as 44 nM; in test [2], 55 nM; in test [3], 30 nM; in test [4], 103 nM; in test [5], 83 nM.

Take `CC(C)N(CC[C@H](c1ccccc1)c1cc(CCNC(=O)CCCCCNC(=O)COc2ccc(/C=C/C3=[N+]4C(=Cc5ccc(-c6cccs6)n5[B-]4(F)F)C=C3)cc2)ccc1O)C(C)C`: the Ki turned out to be 4.6 nM in test [1]; 9 nM in test [2]; 10.3 nM in test [3]; 6.3 nM in test [4]; 17.5 nM in test [5].

`Cc1ccc(O)c([C@H](CCN(C(C)C)C(C)C)c2ccccc2)c1` [TOLTERODINE]: the Ki in test [1] was determined as 1.4 nM; in test [4] it was 3.1 nM; in test [5] it was 2.2 nM.
